Assays:
[1] = system: U-46619-induced platelet aggregation (rat platelet rich plasma); experiment: Inhibition of U-46619-induced platelet aggregation in vitro in rat platelet rich plasma; format: cell-based; conditions: rat PRP
Experimental: Platelet rich plasma (PRP) was prepared from heparanized whole blood (5 units/ml) drawn from the abdominal aorta of ether anesthetized rats. PRP was prepared by centrifugation (Sorvall RC2B, DuPont, Wilmington, Del.) of the whole blood at 150×g for 10 min. Platelet poor plasma (PPP) was prepared by centrifugation at 1200×g for 20 min. Aliquots of PRP and PPP were used to standardize the aggregometer (Payton, Buffalo, N.Y., model 300B) with the recorder (Riken Denshi 2 channel recorder, Payton, model SP-H5P) for measurement of minimum and maximum light transmittance, respectively.
Platelet aggregation was measured as an increase in light transmittance. PRP (390 μl aliquot 5 μl compound vehicle) was preincubated for 1 min. at 37° C., with stirring at 900 rpm in the aggregometer. […] Amount of aggregation was measured by grids on the strip chart.
Compounds were dissolved in either ethanol (ETOH) or Na2 CO3 (0.1 M) and preincubated at the desired concentration in PRP for 1 min. at 37° C. with stirring. […] Dose response curves were generated and IC50 's calculated by linear regression.

washed human platelets = experiment: Analysis of partial agonism (human washed platelets); format: cell-based; conditions: 5 and 10 min. incubation
Experimental: Sixty ml of blood were drawn into 1/10 volume of CCD (100 mM Na Citrate and 136 mM glucose, pH 6.5 with HCl) and PRP prepared as described above. PRP was placed on ice for 15 min. One half of the volume of CCD was added and recentrifuged. The platelet pellet was gently resuspended in 1/2 the original volume of PRP in a 0° C. modified Tangen-Hepes-BSA buffer (145 mM NaCl, 5 mM KCl, 0.05 mM CaCl2, 0.1 mM MgCl2, 11 mM glucose, 15 mM Hepes, 1 mg/ml bovine serum albumin, pH adjusted to 7.4 with NaOH). The resuspended platelets were incubated undisturbed at 37° C. for 30 min. After incubation a platelet count was determined and adjusted to 3×10^8 cells/ml with the Tangen-Hepes-BSA buffer.
425 μl of the washed human platelet suspension was incubated in the aggregometer in the presence of 16 mM CaCl2 (50 μl) and SC-46985 for 5 and 10 min. […] (In a study similar to (a) above, aliquots of human washed platelets were incubated with various concentrations of SC-46985 and U-46619 to determine dose-related inhibition of aggregation).

SMILES | fold more potent in aqueous solution than in ethanol ([1]; Na Carbonate vs ETOH vehicle) | IC50 ([1]; Rattus norvegicus, Platelet, vehicle ETOH) [nM] | partial agonist activity (washed human platelets) | shape change or aggregation (washed human platelets; no U-46619)
CC(=NNC(=S)Nc1ccccc1)[C@@H]1[C@H]2CC[C@H](C2)[C@H]1C/C=C\CCCC(=O)O (relative stereo) [SC-44161, (±)7-[3α[[(Phenylamino)thioxomethyl]hydrazono]ethyl]1α,4α-bicyclo[2.2.1]hept-2β-yl]-5Z-heptenoic acid] | 5-10 fold | 260 |  | 
CC(=NNC(=S)Nc1ccccc1)[C@H]1[C@@H]2CC[C@@H](C2)[C@@H]1C/C=C\CCCC(=O)O [SC-46985] |  |  | lack of partial agonist activity | no evidence of shape change or aggregation

Reference: patent US4992581A, “Novel methods of manufacturing thromboxane A2 antagonists” (National Research Development Corporation, priority 1988, dated 1991)
